These results are taken from article PMC7933930, “Development of a small molecule that corrects misfolding and increases secretion of Z α1‐antitrypsin” (EMBO Molecular Medicine, 2021).

Molecules are shown by their SMILES.

Experiment [1] has as its system Z α1‐antitrypsin polymers in CHO‐TET‐ON‐Z‐A1AT cells. The experiment can be described thus: Intracellular Z α1‐antitrypsin polymer formation in CHO‐TET‐ON‐Z‐A1AT cells (2C1 staining). It counts as cell-based. As for the experimental part:
The ability of GSK716 to block Z α1‐antitrypsin polymerisation in the ER during folding was assessed by adding GSK716 to CHO‐TET‐ON‐Z‐A1AT cells (Ordóñez et al, 2013) with simultaneous induction of Z α1‐antitrypsin expression using doxycycline. […] Similar potency between the effects on secretion and polymerisation was observed throughout members of the lead series supporting the hypothesis that these effects are caused by the same pharmacological mode of action.
Figure 2 GSK716 inhibits polymerisation of Z α1‐antitrypsin in cell models of disease • A GSK716 was added to CHO‐TET‐ON‐Z‐A1AT cells (Ordóñez et al, 2013) with simultaneous induction of Z α1‐antitrypsin expression using doxycycline, and polymer load was quantified with the 2C1 monoclonal antibody that is specific to pathological polymers of α1‐antitrypsin (Miranda et al, 2010). […] For every time point, NP‐40‐soluble and NP‐40‐insoluble fractions were separated and immunoprecipitated with the 2C1 mAb and resolved by 4–12% w/v SDS–PAGE and α1‐antitrypsin detected by immunoblotting. […] Cell viability was measured by Cell Counting Kit‐8. […] Samples were resolved by 4–12% w/v acrylamide SDS–PAGE and detected by autoradiography. • H The graphs show the effect of GSK716 on intracellular and extracellular Z α1‐antitrypsin (mean ± SEM, n = 2). […]

The target in the next experiment is Adrenergic β2 (Homo sapiens, UniProt P07550). The experiment can be described thus: Off‐target panel: Adrenergic β2. It counts as cell-based. To be noted: read-out: Mean (PXC50). How it is done: (§1) GSK716 selectivity and PK properties were profiled in order to investigate the suitability of GSK716 for progression into in vivo studies and the potential for taking it forward as a clinical candidate for testing in humans. Since GSK716 results in loss of inhibitory activity of α1‐antitrypsin, the effect of the compound was assessed on other closely related serpins. […] Furthermore, there were no off‐target effects in a panel of assays considered predictive of known safety liabilities that precluded further development of GSK716 (Table EV1).

In another experiment the target is Monoamine oxidase A (Homo sapiens, UniProt P21397). Kind of experiment: Off‐target panel: Monoamine oxidase A. To be noted: Inhibition, read-out: Mean (PXC50). It counts as biochemical. How it is done:
as §1

Another experiment concerns the target Z α1‐antitrypsin (Homo sapiens, UniProt P01009, E366K). The experiment can be described thus: Association kinetics by intrinsic tryptophan fluorescence (stopped flow), Z α1‐antitrypsin. It counts as binding. Further details: purified from the plasma of Z α1‐antitrypsin homozygotes; from tissue; host or cells: human plasma of Z α1-antitrypsin homozygotes. From the text:
The shape of the curves and native mass spectrometry (not shown) are consistent with a single high‐affinity compound binding site. No binding of the fluorescent derivative to polymers of Z α1‐antitrypsin was observed, indicating conformational selectivity for the monomeric protein (Fig 1D). The rate of interaction of the compound with the target was monitored through changes in intrinsic tryptophan fluorescence (Dafforn et al, 1999); this property was used to determine the second‐order association rate constants for GSK716 binding to Z (4.1 × 10^4 M^−1 s^−1) and M α1‐antitrypsin (2.1 × 10^2 M^−1 s^−1; Fig 1E and F). […] Therefore, the selectivity of the compound for Z over M α1‐antitrypsin is dominated by the difference in the rate of association rather than dissociation.
Kinetic parameters of GSK716 binding to M, Z, S (Glu264Val) and Baghdad (Ala336Pro) (Haq et al, 2016) α1‐antitrypsin were measured by detecting intrinsic tryptophan fluorescence of the protein (excitation at 280 nm and detection of emission at 320 nm) on a stopped flow apparatus (Applied Photophysics) (Kim & Yu, 1996; Dafforn et al, 1999). A competition assay for binding to M α1‐antitrypsin and Z α1‐antitrypsin and Z α1‐antitrypsin polymers (Lomas et al, 1993; Irving et al, 2011; Haq et al, 2013), based on an Alexa488‐labelled analogue of GSK716 (A488‐GSK716), was used to determine the binding affinity of test compounds.

Z α1‐antitrypsin, sequence (P01009 25-418 E366K): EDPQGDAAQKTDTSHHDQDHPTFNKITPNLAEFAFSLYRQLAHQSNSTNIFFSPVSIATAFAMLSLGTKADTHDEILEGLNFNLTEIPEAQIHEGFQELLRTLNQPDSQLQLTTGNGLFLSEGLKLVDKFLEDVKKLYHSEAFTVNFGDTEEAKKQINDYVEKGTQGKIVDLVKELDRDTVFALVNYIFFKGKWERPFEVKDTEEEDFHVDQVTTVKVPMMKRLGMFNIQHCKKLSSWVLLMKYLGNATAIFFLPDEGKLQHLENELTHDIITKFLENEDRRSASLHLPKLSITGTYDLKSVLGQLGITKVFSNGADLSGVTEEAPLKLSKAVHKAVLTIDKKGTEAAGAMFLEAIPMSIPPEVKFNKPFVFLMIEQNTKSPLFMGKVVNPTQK
Adrenergic β2, sequence (P07550 whole entry): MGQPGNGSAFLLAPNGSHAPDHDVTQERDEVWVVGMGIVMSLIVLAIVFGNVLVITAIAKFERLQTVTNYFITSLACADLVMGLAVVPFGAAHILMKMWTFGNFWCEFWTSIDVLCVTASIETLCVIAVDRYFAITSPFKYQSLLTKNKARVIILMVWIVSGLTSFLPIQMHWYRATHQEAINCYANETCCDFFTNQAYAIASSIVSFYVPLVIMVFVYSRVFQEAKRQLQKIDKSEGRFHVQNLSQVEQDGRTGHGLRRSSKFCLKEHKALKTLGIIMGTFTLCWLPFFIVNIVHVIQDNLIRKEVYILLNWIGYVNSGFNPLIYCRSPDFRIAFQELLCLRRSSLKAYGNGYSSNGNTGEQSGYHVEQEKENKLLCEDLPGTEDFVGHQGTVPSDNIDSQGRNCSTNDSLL
Monoamine oxidase A, sequence (P21397 whole entry): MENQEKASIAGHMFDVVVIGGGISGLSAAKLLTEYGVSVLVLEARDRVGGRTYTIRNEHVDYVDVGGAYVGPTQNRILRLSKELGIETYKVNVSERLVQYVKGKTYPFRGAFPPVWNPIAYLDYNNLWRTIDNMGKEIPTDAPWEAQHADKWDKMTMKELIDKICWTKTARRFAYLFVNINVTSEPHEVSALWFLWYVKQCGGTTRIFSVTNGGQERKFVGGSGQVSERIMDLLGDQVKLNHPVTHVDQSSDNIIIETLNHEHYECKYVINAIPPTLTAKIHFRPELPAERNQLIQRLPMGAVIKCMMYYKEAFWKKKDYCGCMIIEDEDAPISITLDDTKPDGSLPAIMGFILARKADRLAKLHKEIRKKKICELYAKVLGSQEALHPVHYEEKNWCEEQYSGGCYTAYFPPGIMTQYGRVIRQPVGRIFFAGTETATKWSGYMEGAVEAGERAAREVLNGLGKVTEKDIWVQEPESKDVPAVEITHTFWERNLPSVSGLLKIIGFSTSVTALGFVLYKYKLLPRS

As to `CCC[C@@H](NC(=O)c1cccc2c1CC(=O)N2)[C@@H](O)c1cccc(F)c1C` [GSK716], the “intracellular formation of Z α1‐antitrypsin polymers in comparison with controls” value in experiment [1] is listed as “completely blocked”. In addition, the IC50 was 0.501 µM in experiment [1] (doxycycline induction, n = 71, read-out: mean pIC50, intracellular formation of Z α1‐antitrypsin polymers (converted)); above 100 µM on Adrenergic β2 (Antagonist); above 100 µM on Monoamine oxidase A. Moreover, at Adrenergic β2 (Agonist), the EC50 was above 100 µM. Besides, on Z α1‐antitrypsin (10 µM GSK716, 0.2 mg/ml protein), the “time of change in Z α1‐antitrypsin fluorescence on association (faster than dead‐time of the apparatus)” value was below 10 s. For the same compound, at Z α1‐antitrypsin (Z α1‐antitrypsin, calculated from association rate constant and affinity, read-out: first‐order dissociation rate constant), the koff is 6.1e-05 s⁻¹. Besides, on Z α1‐antitrypsin (Z α1‐antitrypsin, read-out: second‐order association rate constant), the kon is 41000 M⁻¹ s⁻¹.
